Molecular target: T1, Bcl-2 protein (Recombinant Human Bcl-2 Protein) (Homo sapiens, UniProt P10415)
T1 construct: purchased Novus Biologicals NBP2-34889
Assay: AS-MS evaluation of binding of the Example 4 mixture library (1200 compounds/well) to Bcl-2, ASMS ratio (%)
Settings: AS-MS, Example 4 mixture library; for ASMS ratio (%) n = 1: Bcl-2, replicate n = 1; for ASMS ratio (%) n = 2: Bcl-2, replicate n = 2
In short: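 Binding is read as an ASMS ratio from reverse-phase LC/MS peak data. Samples: 1200 compounds at 20 nM each with 20 μM Bcl-2, 1 h at 23 °C in the dark, then P-2 SEC and organic-solvent extraction; references lacked protein, with and without SEC.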

T1 sequence (P10415 whole entry): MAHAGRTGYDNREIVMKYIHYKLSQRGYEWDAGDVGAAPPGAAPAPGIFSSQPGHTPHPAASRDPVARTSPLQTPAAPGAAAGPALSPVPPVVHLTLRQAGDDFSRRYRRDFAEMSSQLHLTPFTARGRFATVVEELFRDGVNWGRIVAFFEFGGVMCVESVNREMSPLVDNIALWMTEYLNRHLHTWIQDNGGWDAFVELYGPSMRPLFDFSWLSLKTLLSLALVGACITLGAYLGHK

Compound	ASMS ratio (%) n = 1	ASMS ratio (%) n = 2
CCOc1cccc(-c2cc(C(=O)N3CCN(c4ccc(C(=O)NS(=O)(=O)c5ccc(NCCSc6ccccc6)c(C(F)(F)F)c5)nn4)CC3)cc(C(C)(C)C)c2)c1 [Compound B2R015-01, 6-[4-[3-tert-Butyl-5-(3-ethoxyphenyl)benzoyl]piperazin-1-yl]-N-[4-(2-phenylsulfanylethylamino)-3-(trifluoromethyl)phenyl]sulfonylpyridazine-3-carboxamide]	9.7%	0.0%
CCOc1cncc(-c2cc(C(=O)N3CCN(c4ccc(C(=O)NS(=O)(=O)c5ccc(NCCSc6ccccc6)c(C(F)(F)F)c5)nn4)CC3)cc(C(C)(C)C)c2)c1 [Compound B2R016-01, 6-[4-[3-tert-Butyl-5-(5-ethoxypyridin-3-yl)benzoyl]piperazin-1-yl]-N-[4-(2-phenylsulfanylethylamino)-3-(trifluoromethyl)phenyl]sulfonylpyridazine-3-carboxamide]	9.1%	2.7%
CCOc1cccc(-c2cc(C(=O)N3CCN(c4ccc(C(=O)NS(=O)(=O)c5ccc(NCCSc6ccccc6)c(C(F)(F)F)c5)nn4)CC3)cc(C(F)(F)F)c2)c1 [Compound B2R017-01, 6-[4-[3-(3-Ethoxyphenyl)-5-(trifluoromethyl)benzoyl]piperazin-1-yl]-N-[4-(2-phenylsulfanylethylamino)-3-(trifluoromethyl)phenyl]sulfonylpyridazine-3-carboxamide]	32.9%	27.2%
CCOc1cncc(-c2cc(C(=O)N3CCN(c4ccc(C(=O)NS(=O)(=O)c5ccc(NCCSc6ccccc6)c(C(F)(F)F)c5)nn4)CC3)cc(C(F)(F)F)c2)c1 [Compound B2R018-01, 6-[4-[3-(5-Ethoxypyridin-3-yl)-5-(trifluoromethyl)benzoyl]piperazin-1-yl]-N-[4-(2-phenylsulfanylethylamino)-3-(trifluoromethyl)phenyl]sulfonylpyridazine-3-carboxamide]	5.1%	7.8%
CCOc1cccc(C#Cc2cc(C(=O)N3CCN(c4ccc(C(=O)NS(=O)(=O)c5ccc(NCCSc6ccccc6)c(C(F)(F)F)c5)nn4)CC3)cc(C(F)(F)F)c2)c1 [Compound B2R019-01, 6-[4-[3-[2-(3-Ethoxyphenyl)ethynyl]-5-(trifluoromethyl)benzoyl]piperazin-1-yl]-N-[4-(2-phenylsulfanylethylamino)-3-(trifluoromethyl)phenyl]sulfonylpyridazine-3-carboxamide]	5.2%	14.0%
CCOc1cncc(C#Cc2cc(C(=O)N3CCN(c4ccc(C(=O)NS(=O)(=O)c5ccc(NCCSc6ccccc6)c(C(F)(F)F)c5)nn4)CC3)cc(C(F)(F)F)c2)c1 [Compound B2R020-01, 6-[4-[3-[2-(5-Ethoxypyridin-3-yl)ethynyl]-5-(trifluoromethyl)benzoyl]piperazin-1-yl]-N-[4-(2-phenylsulfanylethylamino)-3-(trifluoromethyl)phenyl]sulfonylpyridazine-3-carboxamide]	10.8%	−17.7%
CCOc1cccc(-c2cnn(-c3cc(C(=O)N4CCN(c5ccc(C(=O)NS(=O)(=O)c6ccc(NCCSc7ccccc7)c(C(F)(F)F)c6)nn5)CC4)cc(C(F)(F)F)c3)c2)c1 [Compound B2R021-01, 6-[4-[3-[4-(3-Ethoxyphenyl)pyrazol-1-yl]-5-(trifluoromethyl)benzoyl]piperazin-1-yl]-N-[4-(2-phenylsulfanylethylamino)-3-(trifluoromethyl)phenyl]sulfonylpyridazine-3-carboxamide]	13.0%	0.0%
CCOc1cncc(-c2cnn(-c3cc(C(=O)N4CCN(c5ccc(C(=O)NS(=O)(=O)c6ccc(NCCSc7ccccc7)c(C(F)(F)F)c6)nn5)CC4)cc(C(F)(F)F)c3)c2)c1 [Compound B2R022-01, 6-[4-[3-[4-(5-Ethoxypyridin-3-yl)pyrazol-1-yl]-5-(trifluoromethyl)benzoyl]piperazin-1-yl]-N-[4-(2-phenylsulfanylethylamino)-3-(trifluoromethyl)phenyl]sulfonylpyridazine-3-carboxamide]	14.5%	15.8%
CCOc1cncc(-c2csc(C(=O)N3CCN(c4ccc(C(=O)NS(=O)(=O)c5ccc(NCCSc6ccccc6)c(C(F)(F)F)c5)cc4)CC3)c2)c1 [Compound B2R024-01, 4-[4-[4-(5-Ethoxypyridin-3-yl)thiophene-2-carbonyl]piperazin-1-yl]-N-[4-(2-phenylsulfanylethylamino)-3-(trifluoromethyl)phenyl]sulfonylbenzamide]	0.0%	−1.2%
CCOc1cccc(C#Cc2ccccc2C(=O)N2CCN(c3ccc(C(=O)NS(=O)(=O)c4ccc(NCCSc5ccccc5)c(C(F)(F)F)c4)cc3)CC2)c1 [Compound B2R029-01, 4-[4-[2-[2-(3-Ethoxyphenyl)ethynyl]benzoyl]piperazin-1-yl]-N-[4-(2-phenylsulfanylethylamino)-3-(trifluoromethyl)phenyl]sulfonylbenzamide]	–	0.0%
CCOc1cncc(C#Cc2ccccc2C(=O)N2CCN(c3ccc(C(=O)NS(=O)(=O)c4ccc(NCCSc5ccccc5)c(C(F)(F)F)c4)cc3)CC2)c1 [Compound B2R030-01, 4-[4-[2-[2-(5-Ethoxypyridin-3-yl)ethynyl]benzoyl]piperazin-1-yl]-N-[4-(2-phenylsulfanylethylamino)-3-(trifluoromethyl)phenyl]sulfonylbenzamide]	0.0%	4.8%
CCOc1cncc(C#Cc2cncc(C(=O)N3CCN(c4ccc(C(=O)NS(=O)(=O)c5ccc(NCCSc6ccccc6)c(C(F)(F)F)c5)cc4)CC3)c2)c1 [Compound B2R032-01, 4-[4-[5-[2-(5-Ethoxypyridin-3-yl)ethynyl]pyridine-3-carbonyl]piperazin-1-yl]-N-[4-(2-phenylsulfanylethylamino)-3-(trifluoromethyl)phenyl]sulfonylbenzamide]	6.4%	0.0%
CCOc1cncc(-c2ccccc2CCC(=O)N2CCN(c3ccc(C(=O)NS(=O)(=O)c4ccc(NCCSc5ccccc5)c(C(F)(F)F)c4)cc3)CC2)c1 [Compound B2R034-01, 4-[4-[3-[2-(5-Ethoxypyridin-3-yl)phenyl]propanoyl]piperazin-1-yl]-N-[4-(2-phenylsulfanylethylamino)-3-(trifluoromethyl)phenyl]sulfonylbenzamide]	0.1%	−1.3%

Second part, the compound after the results:

ASMS ratio (%) n = 1	ASMS ratio (%) n = 2	Compound
0.0%	−15.5%	CCOc1cccc(-c2csc(C(=O)N3CCN(c4ccc(C(=O)NS(=O)(=O)c5ccc(NCCSc6ccccc6)c(C(F)(F)F)c5)cc4)CC3)c2)c1 [Compound B2R023-01, 4-[4-[4-(3-Ethoxyphenyl)thiophene-2-carbonyl]piperazin-1-yl]-N-[4-(2-phenylsulfanylethylamino)-3-(trifluoromethyl)phenyl]sulfonylbenzamide]
−1.0%	−2.4%	CCOc1cccc(-c2ccc(C(=O)N3CCN(c4ccc(C(=O)NS(=O)(=O)c5ccc(NCCSc6ccccc6)c(C(F)(F)F)c5)cc4)CC3)cc2C)c1 [Compound B2R025-01, 4-[4-[4-(3-Ethoxyphenyl)-3-methylbenzoyl]piperazin-1-yl]-N-[4-(2-phenylsulfanylethylamino)-3-(trifluoromethyl)phenyl]sulfonylbenzamide]
1.7%	−4.6%	CCOc1cncc(-c2ccc(C(=O)N3CCN(c4ccc(C(=O)NS(=O)(=O)c5ccc(NCCSc6ccccc6)c(C(F)(F)F)c5)cc4)CC3)cc2C)c1 [Compound B2R026-01, 4-[4-[4-(5-Ethoxypyridin-3-yl)-3-methylbenzoyl]piperazin-1-yl]-N-[4-(2-phenylsulfanylethylamino)-3-(trifluoromethyl)phenyl]sulfonylbenzamide]
−3.7%	1.2%	CCOc1cccc(-c2ccc(C(=O)N3CCN(c4ccc(C(=O)NS(=O)(=O)c5ccc(NCCSc6ccccc6)c(C(F)(F)F)c5)cc4)CC3)cc2F)c1 [Compound B2R027-01, 4-[4-[4-(3-Ethoxyphenyl)-3-fluorobenzoyl]piperazin-1-yl]-N-[4-(2-phenylsulfanylethylamino)-3-(trifluoromethyl)phenyl]sulfonylbenzamide]
4.1%	−0.5%	CCOc1cncc(-c2ccc(C(=O)N3CCN(c4ccc(C(=O)NS(=O)(=O)c5ccc(NCCSc6ccccc6)c(C(F)(F)F)c5)cc4)CC3)cc2F)c1 [Compound B2R028-01, 4-[4-[4-(5-Ethoxypyridin-3-yl)-3-fluorobenzoyl]piperazin-1-yl]-N-[4-(2-phenylsulfanylethylamino)-3-(trifluoromethyl)phenyl]sulfonylbenzamide]
0.0%	4.8%	CCOc1cccc(C#Cc2cncc(C(=O)N3CCN(c4ccc(C(=O)NS(=O)(=O)c5ccc(NCCSc6ccccc6)c(C(F)(F)F)c5)cc4)CC3)c2)c1 [Compound B2R031-01, 4-[4-[5-[2-(3-Ethoxyphenyl)ethynyl]pyridine-3-carbonyl]piperazin-1-yl]-N-[4-(2-phenylsulfanylethylamino)-3-(trifluoromethyl)phenyl]sulfonylbenzamide]
3.6%	−6.6%	CCOc1cccc(-c2ccccc2CCC(=O)N2CCN(c3ccc(C(=O)NS(=O)(=O)c4ccc(NCCSc5ccccc5)c(C(F)(F)F)c4)cc3)CC2)c1 [Compound B2R033-01, 4-[4-[3-[2-(3-Ethoxyphenyl)phenyl]propanoyl]piperazin-1-yl]-N-[4-(2-phenylsulfanylethylamino)-3-(trifluoromethyl)phenyl]sulfonylbenzamide]

— patent publication US20250154686A1, “COMPOUND LIBRARY” (CHUGAI SEIYAKU KABUSHIKI KAISHA, priority 2021, published 2025)
